Experimental data: ChEMBL document CHEMBL4382204 (Eur J Med Chem, 2018)
Active and inactive are the calls of the source. The rule behind the calls is not given here.

Key:
[1] = Apparent volume of distribution during terminal phase in Sprague-Dawley rat at 1 mg/kg, iv by LC-MS/MS analysis; type: ADME, organism-based; conditions: in vivo, read-out: Vz
KU812 cell line [2] = test: Induction of apoptosis in human KU812 cells assessed as cleaved caspase-3 level up to 0.3 uM after 24 hrs by immunoblotting analysis; type: functional, cell-based
BaF3 [3] = test: Induction of apoptosis in mouse BAF3 cells expressing BCR/ABL T315I mutant assessed as cleaved caspase-3 level up to 0.3 uM after 24 hrs by immunoblotting analysis; type: functional, cell-based
[4] = MRT (0 to t) in Sprague-Dawley rat at 10 mg/kg, po by LC-MS/MS analysis; type: ADME, organism-based; conditions: in vivo
BaF3 [5] = test: Antitumor activity against mouse BAF3 cells expressing BCR/ABL T315I mutant allografted in nu/nu mouse assessed as tumor growth inhibition at 50 mg/kg, po administered via gavage for 14 days relative to control; type: functional; conditions: 336 h, read-out: TGI
[6] = Tmax in Sprague-Dawley rat at 10 mg/kg, po by LC-MS/MS analysis; type: ADME, organism-based; conditions: in vivo
[7] = target: Macrophage colony-stimulating factor 1 receptor (Homo sapiens) (UniProt P07333); test: Inhibition of wild type C-terminal FLAG-tagged human TEL fused CSF1R (unknown origin) transfected in mouse BAF3 cells assessed as growth inhibition after 72 hrs by CCK8 assay; type: cell-based
Macrophage colony-stimulating factor 1 receptor (Homo sapiens), sequence (P07333 whole entry, the tested form may be a part): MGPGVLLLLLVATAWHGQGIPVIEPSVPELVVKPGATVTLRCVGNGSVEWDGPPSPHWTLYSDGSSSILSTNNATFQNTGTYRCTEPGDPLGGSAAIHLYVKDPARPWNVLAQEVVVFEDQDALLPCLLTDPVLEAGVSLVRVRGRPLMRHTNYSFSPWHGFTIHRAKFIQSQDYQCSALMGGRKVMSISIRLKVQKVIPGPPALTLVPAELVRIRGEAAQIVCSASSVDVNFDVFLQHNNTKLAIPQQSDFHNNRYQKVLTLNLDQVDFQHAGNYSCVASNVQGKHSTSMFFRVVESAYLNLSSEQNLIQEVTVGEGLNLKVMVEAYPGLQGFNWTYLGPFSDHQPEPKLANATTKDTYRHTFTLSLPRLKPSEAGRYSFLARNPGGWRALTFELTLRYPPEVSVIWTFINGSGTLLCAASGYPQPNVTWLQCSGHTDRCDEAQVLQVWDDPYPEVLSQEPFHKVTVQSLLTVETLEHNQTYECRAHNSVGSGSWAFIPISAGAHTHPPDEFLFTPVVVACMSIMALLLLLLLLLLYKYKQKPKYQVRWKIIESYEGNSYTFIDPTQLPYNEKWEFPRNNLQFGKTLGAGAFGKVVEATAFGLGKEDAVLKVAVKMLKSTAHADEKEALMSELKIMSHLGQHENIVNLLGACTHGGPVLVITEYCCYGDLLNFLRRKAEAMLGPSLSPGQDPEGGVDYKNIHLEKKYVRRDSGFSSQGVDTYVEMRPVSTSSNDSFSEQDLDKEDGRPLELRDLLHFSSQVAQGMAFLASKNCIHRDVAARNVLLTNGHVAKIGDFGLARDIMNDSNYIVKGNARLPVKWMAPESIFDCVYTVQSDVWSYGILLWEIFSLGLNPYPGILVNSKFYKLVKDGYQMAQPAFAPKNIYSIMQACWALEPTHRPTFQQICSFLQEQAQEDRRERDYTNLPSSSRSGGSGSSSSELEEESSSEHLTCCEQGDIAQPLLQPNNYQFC

[8] = MRT (0 to t) in mouse at 1 mg/kg, iv by LC-MS/MS analysis; type: ADME, organism-based; conditions: in vivo
K562 = test: Induction of apoptosis in human K562 cells assessed as cleaved caspase-3 level up to 0.3 uM after 24 hrs by immunoblotting analysis; type: functional, cell-based
[9] = target: T1, Bcr/Abl fusion protein (Homo sapiens) (UniProt P00519+P11274); test: Inhibition of BCR/ABL in human MEG01 cells assessed as inhibition of CrkL phosphorylation up to 0.3 uM after 1 hr by immunoblotting analysis; type: cell-based
[10] = target: T1, Bcr/Abl fusion protein (Homo sapiens); test: (§1) Inhibition of BCR/ABL in human MEG01 cells assessed as inhibition of BCR/ABL autophosphorylation at Y245 site after 1 hr by immunoblotting analysis; type: cell-based
Bcr/Abl fusion protein = Bcr/Abl fusion protein (Homo sapiens, UniProt P00519); test: as §1; type: cell-based
[11] = Apparent clearance during terminal phase in mouse at 1 mg/kg, iv by LC-MS/MS analysis; type: ADME, organism-based; conditions: in vivo
[12] = Toxicity in nu/nu mouse allografted with mouse BAF3 cells expressing BCR/ABL T315I mutant at 25 to 50 mg/kg, po administered daily via gavage for 14 days; type: organism-based; conditions: in vivo, 336 h
[13] = Apparent volume of distribution during terminal phase in mouse at 10 mg/kg, po by LC-MS/MS analysis; type: ADME, organism-based; conditions: in vivo
[14] = system: Bcr/Abl fusion protein (Homo sapiens), P00519+P11274 [F317L]; conditions: BaF3
BaF3 [15] = test: Antitumor activity against mouse BAF3 cells expressing BCR/ABL T315I mutant allografted in nu/nu mouse assessed as tumor growth inhibition at 25 to 50 mg/kg, po administered via gavage for 14 days by TUNEL staining based assay; type: functional, organism-based
[16] = target: T1, Bcr/Abl fusion protein (Homo sapiens); test: Inhibition of BCR/ABL in human KU812 cells assessed as inhibition of STAT5 phosphorylation up to 0.3 uM after 1 hr by immunoblotting analysis; type: cell-based
[17] = Apparent clearance during terminal phase in mouse at 10 mg/kg, po by LC-MS/MS analysis; type: ADME, organism-based; conditions: in vivo, read-out: CLz/F (converted)
[18] = target: Proto-oncogene tyrosine-protein kinase Src (Homo sapiens) (UniProt P12931); test: Inhibition of wild type C-terminal FLAG-tagged human TEL fused SRC (unknown origin) transfected in mouse BAF3 cells assessed as growth inhibition after 72 hrs by CCK8 assay; type: cell-based
Proto-oncogene tyrosine-protein kinase Src (Homo sapiens), sequence (P12931 2-536 limits assumed): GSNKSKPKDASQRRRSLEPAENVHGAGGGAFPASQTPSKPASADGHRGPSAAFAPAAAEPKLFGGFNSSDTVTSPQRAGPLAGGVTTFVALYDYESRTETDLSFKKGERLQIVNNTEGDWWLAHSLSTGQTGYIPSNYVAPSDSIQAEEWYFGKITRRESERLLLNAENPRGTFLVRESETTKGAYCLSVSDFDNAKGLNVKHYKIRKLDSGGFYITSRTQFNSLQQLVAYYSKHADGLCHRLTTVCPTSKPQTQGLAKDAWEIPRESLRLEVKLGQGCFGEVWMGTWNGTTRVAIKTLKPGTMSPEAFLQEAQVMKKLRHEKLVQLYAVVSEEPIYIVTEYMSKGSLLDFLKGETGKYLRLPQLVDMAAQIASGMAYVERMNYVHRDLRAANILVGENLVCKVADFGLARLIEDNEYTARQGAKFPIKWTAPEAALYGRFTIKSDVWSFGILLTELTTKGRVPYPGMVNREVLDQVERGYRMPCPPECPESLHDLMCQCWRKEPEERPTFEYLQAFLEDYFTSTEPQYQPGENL

[19] = Apparent clearance during terminal phase in Sprague-Dawley rat at 1 mg/kg, iv by LC-MS/MS analysis; type: ADME, organism-based; conditions: in vivo
[20] = system: Bcr/Abl fusion protein (Homo sapiens), P00519+P11274 [Y253F]; conditions: BaF3
[21] = system: Bcr/Abl fusion protein (Homo sapiens), P00519+P11274 [T315I]; conditions: BaF3
[22] = Cmax in mouse at 10 mg/kg, po by LC-MS/MS analysis; type: ADME, organism-based; design: dose 10 mg/kg, route oral; conditions: in vivo
[23] = target: Epithelial discoidin domain-containing receptor 1 (Homo sapiens) (UniProt Q08345); test: Inhibition of wild type C-terminal FLAG-tagged human TEL fused DDR1 (unknown origin) transfected in mouse BAF3 cells assessed as growth inhibition after 72 hrs by CCK8 assay; type: cell-based
Epithelial discoidin domain-containing receptor 1 (Homo sapiens), sequence (Q08345 whole entry, the tested form may be a part): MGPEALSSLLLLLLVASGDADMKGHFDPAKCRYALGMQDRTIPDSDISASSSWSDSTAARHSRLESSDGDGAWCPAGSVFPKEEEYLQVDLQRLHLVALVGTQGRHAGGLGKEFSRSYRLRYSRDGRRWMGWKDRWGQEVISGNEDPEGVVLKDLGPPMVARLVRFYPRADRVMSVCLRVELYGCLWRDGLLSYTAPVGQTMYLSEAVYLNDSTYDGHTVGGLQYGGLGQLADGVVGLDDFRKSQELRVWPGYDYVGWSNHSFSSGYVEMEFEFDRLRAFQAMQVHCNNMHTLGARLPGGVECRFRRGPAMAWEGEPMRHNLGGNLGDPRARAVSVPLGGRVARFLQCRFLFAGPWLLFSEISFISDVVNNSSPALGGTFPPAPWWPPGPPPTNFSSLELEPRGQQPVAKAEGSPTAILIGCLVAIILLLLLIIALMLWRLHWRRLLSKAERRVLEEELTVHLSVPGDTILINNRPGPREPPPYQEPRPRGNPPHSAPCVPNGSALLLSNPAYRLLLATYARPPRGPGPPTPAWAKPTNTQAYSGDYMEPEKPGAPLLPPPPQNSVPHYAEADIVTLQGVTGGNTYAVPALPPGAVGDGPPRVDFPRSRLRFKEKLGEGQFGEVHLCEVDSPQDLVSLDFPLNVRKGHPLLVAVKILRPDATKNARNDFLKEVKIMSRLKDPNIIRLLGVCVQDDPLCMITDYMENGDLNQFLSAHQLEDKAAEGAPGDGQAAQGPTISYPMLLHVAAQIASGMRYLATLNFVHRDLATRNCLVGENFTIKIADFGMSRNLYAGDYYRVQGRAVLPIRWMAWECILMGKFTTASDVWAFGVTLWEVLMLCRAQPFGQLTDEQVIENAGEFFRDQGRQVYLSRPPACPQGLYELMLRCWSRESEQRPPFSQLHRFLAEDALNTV

[24] = target: Fibroblast growth factor receptor 3 (Homo sapiens) (UniProt P22607); test: Inhibition of wild type C-terminal FLAG-tagged human TEL fused FGFR3 (unknown origin) transfected in mouse BAF3 cells assessed as growth inhibition after 72 hrs by CCK8 assay; type: cell-based
[25] = target: T1, Bcr/Abl fusion protein (Homo sapiens); conditions: BaF3
Description: Inhibition of wild type BCR/ABL (unknown origin) transfected in mouse BAF3 cells assessed as growth inhibition after 72 hrs by CCK8 assay

U-937 = test: Antiproliferative activity in human U937 cells after 72 hrs by CCK8 assay; type: functional; conditions: U-937, 72 h
[26] = AUC (0 to infinity) in Sprague-Dawley rat at 10 mg/kg, po by LC-MS/MS analysis; type: ADME, organism-based; design: dose 10 mg/kg, time infinity, route oral; conditions: in vivo
[27] = target: Proto-oncogene tyrosine-protein kinase receptor Ret (Homo sapiens) (UniProt P07949); test: Inhibition of wild type C-terminal FLAG-tagged human TEL fused RET (unknown origin) transfected in mouse BAF3 cells assessed as growth inhibition after 72 hrs by CCK8 assay; type: cell-based
Proto-oncogene tyrosine-protein kinase receptor Ret (Homo sapiens), sequence (P07949 whole entry, the tested form may be a part): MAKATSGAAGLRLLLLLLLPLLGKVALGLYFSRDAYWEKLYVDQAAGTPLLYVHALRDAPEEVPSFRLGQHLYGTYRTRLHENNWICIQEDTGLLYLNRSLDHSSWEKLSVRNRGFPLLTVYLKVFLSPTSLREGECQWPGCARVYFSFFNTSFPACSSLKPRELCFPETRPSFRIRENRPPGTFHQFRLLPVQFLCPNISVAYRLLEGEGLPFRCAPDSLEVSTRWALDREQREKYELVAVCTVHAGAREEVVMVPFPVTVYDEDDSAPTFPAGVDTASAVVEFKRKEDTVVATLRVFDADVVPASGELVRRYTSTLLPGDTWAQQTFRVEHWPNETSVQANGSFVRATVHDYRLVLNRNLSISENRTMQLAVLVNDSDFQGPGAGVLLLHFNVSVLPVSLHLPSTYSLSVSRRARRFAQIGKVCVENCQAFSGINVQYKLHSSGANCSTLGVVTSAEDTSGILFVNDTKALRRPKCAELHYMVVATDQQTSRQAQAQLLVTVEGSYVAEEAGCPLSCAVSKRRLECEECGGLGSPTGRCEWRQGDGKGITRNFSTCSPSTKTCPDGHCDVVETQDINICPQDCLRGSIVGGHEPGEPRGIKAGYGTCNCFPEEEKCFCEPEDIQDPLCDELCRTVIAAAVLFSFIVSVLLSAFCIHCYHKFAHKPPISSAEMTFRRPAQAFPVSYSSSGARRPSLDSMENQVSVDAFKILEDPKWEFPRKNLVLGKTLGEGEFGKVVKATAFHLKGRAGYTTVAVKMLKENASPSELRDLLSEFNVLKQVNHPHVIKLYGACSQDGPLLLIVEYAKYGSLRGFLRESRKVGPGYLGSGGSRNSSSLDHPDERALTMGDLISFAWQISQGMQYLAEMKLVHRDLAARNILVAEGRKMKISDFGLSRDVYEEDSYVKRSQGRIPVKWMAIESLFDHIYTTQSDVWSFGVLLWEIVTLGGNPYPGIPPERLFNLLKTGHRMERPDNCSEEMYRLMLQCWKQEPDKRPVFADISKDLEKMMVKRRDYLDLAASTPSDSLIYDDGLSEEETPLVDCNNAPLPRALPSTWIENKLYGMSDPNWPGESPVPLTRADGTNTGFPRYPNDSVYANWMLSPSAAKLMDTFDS

KU812 cell line [28] = test: Induction of apoptosis in human KU812 cells assessed as cleaved PARP level up to 0.3 uM after 24 hrs by immunoblotting analysis; type: functional, cell-based
[29] = target: Tyrosine-protein kinase ABL1 (Homo sapiens, UniProt P00519); conditions: BaF3
Description: Inhibition of wild type C-terminal FLAG-tagged human TEL fused ABL (unknown origin) transfected in mouse BAF3 cells assessed as growth inhibition after 72 hrs by CCK8 assay

[30] = target: Fibroblast growth factor receptor 2 (Homo sapiens) (UniProt P21802); test: Inhibition of wild type C-terminal FLAG-tagged human TEL fused FGFR2 (unknown origin) transfected in mouse BAF3 cells assessed as growth inhibition after 72 hrs by CCK8 assay; type: cell-based
Fibroblast growth factor receptor 2 (Homo sapiens), sequence (P21802 22-821 limits assumed): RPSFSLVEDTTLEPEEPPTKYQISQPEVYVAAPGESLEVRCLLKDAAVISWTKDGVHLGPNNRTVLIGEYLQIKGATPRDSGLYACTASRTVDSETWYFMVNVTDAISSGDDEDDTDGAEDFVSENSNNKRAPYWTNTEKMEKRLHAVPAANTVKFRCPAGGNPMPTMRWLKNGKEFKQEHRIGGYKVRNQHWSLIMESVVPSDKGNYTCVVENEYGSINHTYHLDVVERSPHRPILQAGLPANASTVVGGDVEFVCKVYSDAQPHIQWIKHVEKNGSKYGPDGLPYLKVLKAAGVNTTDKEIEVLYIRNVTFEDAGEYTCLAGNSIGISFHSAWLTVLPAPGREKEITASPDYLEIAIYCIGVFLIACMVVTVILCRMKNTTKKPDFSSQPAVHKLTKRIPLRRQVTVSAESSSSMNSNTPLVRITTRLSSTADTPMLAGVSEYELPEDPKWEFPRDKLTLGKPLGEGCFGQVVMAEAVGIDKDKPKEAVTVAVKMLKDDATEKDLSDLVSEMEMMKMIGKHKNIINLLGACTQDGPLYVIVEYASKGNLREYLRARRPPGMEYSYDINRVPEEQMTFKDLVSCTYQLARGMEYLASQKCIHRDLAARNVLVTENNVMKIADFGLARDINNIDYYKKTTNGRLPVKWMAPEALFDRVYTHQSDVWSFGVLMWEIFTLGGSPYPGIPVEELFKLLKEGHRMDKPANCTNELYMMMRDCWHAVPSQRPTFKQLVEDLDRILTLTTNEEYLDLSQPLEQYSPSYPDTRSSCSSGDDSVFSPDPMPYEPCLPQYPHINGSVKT

[31] = system: Tyrosine-protein kinase ABL1 (Homo sapiens), P00519 [T315I]; conditions: BaF3
MEG-01 = test: Antiproliferative activity in human MEG01 cells after 72 hrs by CCK8 assay; type: functional; conditions: MEG-01, 72 h
[32] = system: Bcr/Abl fusion protein (Homo sapiens), P00519+P11274 [V299L]; conditions: BaF3
[33] = Cmax in Sprague-Dawley rat at 1 mg/kg, iv by LC-MS/MS analysis; type: ADME, organism-based; design: dose 1 mg/kg, route intravenous; conditions: in vivo
[34] = Apparent volume of distribution during terminal phase in mouse at 1 mg/kg, iv by LC-MS/MS analysis; type: ADME, organism-based; conditions: in vivo, read-out: Vz
[35] = Cmax in Sprague-Dawley rat at 10 mg/kg, po by LC-MS/MS analysis; type: ADME, organism-based; design: dose 10 mg/kg, route oral; conditions: in vivo

For `CN1CCN(Cc2ccc(NC(=O)CCSc3ccc4c(/C=C/c5ccccn5)n[nH]c4c3)cc2C(F)(F)F)CC1`, the Vd [1] was 17.7 L/kg, the Activity (KU812 cell line [2]) was “Active” and the Activity (BaF3 [3]) was “Active”. The MRT last [4] was 4.4 h, the inhibition in vivo at 50 mg/kg (BaF3 [5]) was 52% and the Tmax [6] was 3.3 h. For the same compound, the GI50 [7] was less than 1 nM, the MRT last [8] was 1.7 h and the Activity (K562) was “Active”. The inhibition [9] was “Active”, the inhibition [10] was “Dose-dependent effect” and the EC50 (Bcr/Abl fusion protein) was less than 10 nM. For the same compound, the CLz/F [11] was 103 mL/min/kg, the Activity [12] was “Non-Toxic” and the Vz [13] was 124.9 L/kg. For the same compound, the GI50 [14] was 18 nM, the TGI (BaF3 [15]) was “Active” and the inhibition [16] was “Active”. The CL/F [17] was 723 mL/min/kg, the GI50 [18] was 1050 nM and the CLz/F [19] was 85 mL/min/kg. For the same compound, the GI50 [20] was 180 nM, the GI50 [21] was 6 nM and the Cmax [22] was 87.7 ng/mL. For the same compound, the GI50 [23] was 1360 nM, the GI50 [24] was 73 nM and the GI50 [25] was 7 nM. It also gave a GI50 (U-937) of 780 nM, an AUC(0-inf) [26] of 266 ng·h/mL and a GI50 [27] of 200 nM. The Activity (KU812 cell line [28]) was “Active”, the GI50 [29] was less than 1 nM and the GI50 [30] was 36 nM. The GI50 [31] was 3 nM, the GI50 (MEG-01) was 1 nM and the GI50 [32] was 103 nM. For the same compound, the Cmax [33] was 1270 ng/mL, the Vd [34] was 45.3 L/kg and the Cmax [35] was 48.6 ng/mL.
